Laboratory results reported in ChEMBL document CHEMBL4507316 (2021).

Columns and labels:
[1] = molecular target: Dual specificity tyrosine-phosphorylation-regulated kinase 1A (Homo sapiens) (UniProt Q13627); assay: DYRK1A ProQinase selectivity panel; settings: Compound concentration 1.0 uM
[2] = molecular target: MAP kinase-interacting serine/threonine-protein kinase 1 (Homo sapiens) (UniProt Q9BUB5); assay: MKNK1 ProQinase selectivity panel; settings: Compound concentration 1.0 uM
[3] = molecular target: D(1A) dopamine receptor (Homo sapiens) (UniProt P21728); settings: Compound concentration 10.0 uM
[4] = molecular target: Death-associated protein kinase 3 (Homo sapiens) (UniProt O43293); assay: DAPK3 ProQinase selectivity panel; settings: Compound concentration 1.0 uM
[5] = molecular target: Serine/threonine-protein kinase PLK1 (Homo sapiens) (UniProt P53350); assay: PLK1 ProQinase selectivity panel; settings: Compound concentration 1.0 uM
[6] = molecular target: ALK tyrosine kinase receptor (Homo sapiens) (UniProt Q9UM73); assay: ALK ProQinase selectivity panel; settings: Compound concentration 1.0 uM
[7] = molecular target: Receptor-type tyrosine-protein kinase FLT3 (Homo sapiens) (UniProt P36888); assay: FLT3 wt ProQinase selectivity panel; settings: Compound concentration 1.0 uM
[8] = molecular target: Platelet-derived growth factor receptor alpha (Homo sapiens) (UniProt P16234); assay: PDGFR-alpha wt ProQinase selectivity panel; settings: Compound concentration 1.0 uM
[9] = molecular target: Serine/threonine-protein kinase 33 (Homo sapiens) (UniProt Q9BYT3); assay: STK33 ProQinase selectivity panel; settings: Compound concentration 1.0 uM
[10] = molecular target: Mitogen-activated protein kinase kinase kinase 11 (Homo sapiens) (UniProt Q16584); assay: MAP3K11 ProQinase selectivity panel; settings: Compound concentration 1.0 uM
[11] = molecular target: Ribosomal protein S6 kinase alpha-2 (Homo sapiens) (UniProt Q15349); assay: RPS6KA2 ProQinase selectivity panel; settings: Compound concentration 1.0 uM
[12] = molecular target: Alpha-1A adrenergic receptor (Homo sapiens) (UniProt P35348); settings: Compound concentration 10.0 uM
[13] = molecular target: Glycogen synthase kinase-3 alpha (Homo sapiens) (UniProt P49840); assay: GSK3-alpha ProQinase selectivity panel; settings: Compound concentration 1.0 uM
[14] = molecular target: 5-hydroxytryptamine receptor 2B (Homo sapiens, UniProt P41595); assay: GPCRScan assay: inhibition of 5-HT2B; design: radioligand conc. used [nm] 1.0 – 2.0, parental cells stable HEK
[15] = molecular target: Serine/threonine-protein kinase BRSK1 (Homo sapiens) (UniProt Q8TDC3); assay: BRSK1 ProQinase selectivity panel; settings: Compound concentration 1.0 uM
[16] = molecular target: DNA-dependent protein kinase catalytic subunit (Homo sapiens) (UniProt P78527); assay: DNA-PK ProQinase selectivity panel; settings: Compound concentration 1.0 uM
[17] = molecular target: G protein-coupled receptor kinase 5 (Homo sapiens) (UniProt P34947); assay: GRK5 ProQinase selectivity panel; settings: Compound concentration 1.0 uM
[18] = molecular target: Rho-associated protein kinase 2 (Homo sapiens) (UniProt O75116); assay: ROCK2 ProQinase selectivity panel; settings: Compound concentration 1.0 uM
[19] = molecular target: Ephrin type-A receptor 3 (Homo sapiens) (UniProt P29320); assay: EPHA3 ProQinase selectivity panel; settings: Compound concentration 1.0 uM
[20] = molecular target: Mitogen-activated protein kinase kinase kinase 14 (Homo sapiens) (UniProt Q99558); assay: NIK ProQinase selectivity panel; settings: Compound concentration 1.0 uM
[21] = tested on: Tyrosine-protein kinase ABL1 (Homo sapiens), P00519 [F317I]; assay: ABL1 F317I ProQinase selectivity panel; settings: Compound concentration 1.0 uM
[22] = molecular target: 3-phosphoinositide-dependent protein kinase 1 (Homo sapiens) (UniProt O15530); assay: PDK1 ProQinase selectivity panel; settings: Compound concentration 1.0 uM
[23] = tested on: Fibroblast growth factor receptor 3 (Homo sapiens), P22607 [K650E]; assay: FGF-R3 K650E ProQinase selectivity panel; settings: Compound concentration 1.0 uM
[24] = molecular target: Aurora kinase A (Homo sapiens) (UniProt O14965); assay: Aurora-A ProQinase selectivity panel; settings: Compound concentration 1.0 uM
[25] = molecular target: Tyrosine-protein kinase Blk (Homo sapiens) (UniProt P51451); assay: BLK ProQinase selectivity panel; settings: Compound concentration 1.0 uM
[26] = molecular target: Serine/threonine-protein kinase SIK2 (Homo sapiens) (UniProt Q9H0K1); assay: SNF1LK2 ProQinase selectivity panel; settings: Compound concentration 1.0 uM
[27] = molecular target: High affinity nerve growth factor receptor (Homo sapiens) (UniProt P04629); assay: TRK-A ProQinase selectivity panel; settings: Compound concentration 1.0 uM
[28] = molecular target: Alpha-1B adrenergic receptor (Homo sapiens) (UniProt P35368); settings: Compound concentration 10.0 uM
[29] = molecular target: Proto-oncogene tyrosine-protein kinase ROS (Homo sapiens) (UniProt P08922); assay: ROS ProQinase selectivity panel; settings: Compound concentration 1.0 uM
[30] = molecular target: G protein-coupled receptor kinase 3 (Homo sapiens) (UniProt P35626); assay: GRK3 ProQinase selectivity panel; settings: Compound concentration 1.0 uM
[31] = molecular target: Fibroblast growth factor receptor 3 (Homo sapiens) (UniProt P22607); assay: FGF-R3 wt ProQinase selectivity panel; settings: Compound concentration 1.0 uM
[32] = molecular target: Cyclin-dependent kinase 16 (Homo sapiens) (UniProt Q00536); assay: PCTAIRE1 ProQinase selectivity panel; settings: Compound concentration 1.0 uM
[33] = molecular target: Mu-type opioid receptor (Homo sapiens) (UniProt P35372); settings: Compound concentration 10.0 uM
[34] = molecular target: MAP/microtubule affinity-regulating kinase 3 (Homo sapiens) (UniProt P27448); assay: MARK3 ProQinase selectivity panel; settings: Compound concentration 1.0 uM
[35] = molecular target: Casein kinase I isoform alpha (Homo sapiens) (UniProt P48729); assay: CK1-alpha1 ProQinase selectivity panel; settings: Compound concentration 1.0 uM
[36] = molecular target: Mitogen-activated protein kinase 13 (Homo sapiens) (UniProt O15264); assay: p38-delta ProQinase selectivity panel; settings: Compound concentration 1.0 uM
[37] = molecular target: Fibroblast growth factor receptor 2 (Homo sapiens) (UniProt P21802); assay: FGF-R2 ProQinase selectivity panel; settings: Compound concentration 1.0 uM
[38] = molecular target: Serine/threonine-protein kinase PAK 3 (Homo sapiens) (UniProt O75914); assay: PAK3 ProQinase selectivity panel; settings: Compound concentration 1.0 uM
[39] = molecular target: Serine/threonine-protein kinase Nek2 (Homo sapiens) (UniProt P51955); assay: NEK2 ProQinase selectivity panel; settings: Compound concentration 1.0 uM
[40] = molecular target: Serine/threonine-protein kinase Nek3 (Homo sapiens) (UniProt P51956); assay: NEK3 ProQinase selectivity panel; settings: Compound concentration 1.0 uM
[41] = molecular target: Macrophage colony-stimulating factor 1 receptor (Homo sapiens) (UniProt P07333); assay: CSF1-R ProQinase selectivity panel; settings: Compound concentration 1.0 uM
[42] = molecular target: Protein kinase C gamma type (Homo sapiens) (UniProt P05129); assay: PKC-gamma ProQinase selectivity panel; settings: Compound concentration 1.0 uM
[43] = molecular target: Tyrosine-protein kinase Fes/Fps (Homo sapiens) (UniProt P07332); assay: FES ProQinase selectivity panel; settings: Compound concentration 1.0 uM
[44] = tested on: Hepatocyte growth factor receptor (Homo sapiens), P08581 [Y1235D]; assay: MET Y1235D ProQinase selectivity panel; settings: Compound concentration 1.0 uM
[45] = tested on: Hepatocyte growth factor receptor (Homo sapiens), P08581 [F1200I]; assay: MET F1200I ProQinase selectivity panel; settings: Compound concentration 1.0 uM
[46] = molecular target: BDNF/NT-3 growth factors receptor (Homo sapiens) (UniProt Q16620); assay: TRK-B ProQinase selectivity panel; settings: Compound concentration 1.0 uM
[47] = molecular target: Tyrosine-protein kinase Fgr (Homo sapiens) (UniProt P09769); assay: FGR ProQinase selectivity panel; settings: Compound concentration 1.0 uM
[48] = molecular target: Serine/threonine-protein kinase pim-3 (Homo sapiens) (UniProt Q86V86); assay: PIM3 ProQinase selectivity panel; settings: Compound concentration 1.0 uM
[49] = molecular target: Sodium-dependent dopamine transporter (Homo sapiens, UniProt Q01959); assay: GPCRScan assay: inhibition of DAT; design: radioligand conc. used [nm] 3.6 – 16.0, parental cells stable HEK
Sodium-dependent dopamine transporter, sequence (Q01959 whole entry): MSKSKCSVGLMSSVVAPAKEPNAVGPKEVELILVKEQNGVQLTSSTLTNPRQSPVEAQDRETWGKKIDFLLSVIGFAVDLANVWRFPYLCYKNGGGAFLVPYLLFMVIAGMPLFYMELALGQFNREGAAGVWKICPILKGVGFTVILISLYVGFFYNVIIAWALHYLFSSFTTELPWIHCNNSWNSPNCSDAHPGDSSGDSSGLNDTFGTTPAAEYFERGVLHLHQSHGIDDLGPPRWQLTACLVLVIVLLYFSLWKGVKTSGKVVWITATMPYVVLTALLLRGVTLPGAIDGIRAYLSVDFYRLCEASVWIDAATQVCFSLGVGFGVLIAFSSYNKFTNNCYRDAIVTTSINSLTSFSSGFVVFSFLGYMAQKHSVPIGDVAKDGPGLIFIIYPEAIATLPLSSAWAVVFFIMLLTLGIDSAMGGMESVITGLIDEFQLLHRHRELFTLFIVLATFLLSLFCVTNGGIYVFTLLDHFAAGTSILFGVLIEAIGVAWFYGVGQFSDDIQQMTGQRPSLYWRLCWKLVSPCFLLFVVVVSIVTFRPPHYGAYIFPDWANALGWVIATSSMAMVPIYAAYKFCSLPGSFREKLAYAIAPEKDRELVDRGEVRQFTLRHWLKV

5-hydroxytryptamine receptor 2B, sequence (P41595 whole entry): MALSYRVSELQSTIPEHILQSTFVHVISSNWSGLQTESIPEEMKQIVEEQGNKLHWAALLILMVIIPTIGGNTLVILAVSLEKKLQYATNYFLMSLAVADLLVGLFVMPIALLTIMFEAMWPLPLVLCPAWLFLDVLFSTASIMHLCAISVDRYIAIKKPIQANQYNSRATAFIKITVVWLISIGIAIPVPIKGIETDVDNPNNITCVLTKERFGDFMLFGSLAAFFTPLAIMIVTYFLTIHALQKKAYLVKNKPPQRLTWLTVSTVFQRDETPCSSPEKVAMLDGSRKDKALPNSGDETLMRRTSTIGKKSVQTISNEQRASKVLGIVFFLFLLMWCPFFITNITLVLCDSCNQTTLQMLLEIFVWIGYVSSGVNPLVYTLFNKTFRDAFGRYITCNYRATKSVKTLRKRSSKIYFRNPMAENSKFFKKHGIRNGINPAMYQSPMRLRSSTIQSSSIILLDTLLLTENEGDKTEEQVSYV
Hepatocyte growth factor receptor (Homo sapiens), P08581 [Y1235D], sequence (P08581 whole entry Y1235D): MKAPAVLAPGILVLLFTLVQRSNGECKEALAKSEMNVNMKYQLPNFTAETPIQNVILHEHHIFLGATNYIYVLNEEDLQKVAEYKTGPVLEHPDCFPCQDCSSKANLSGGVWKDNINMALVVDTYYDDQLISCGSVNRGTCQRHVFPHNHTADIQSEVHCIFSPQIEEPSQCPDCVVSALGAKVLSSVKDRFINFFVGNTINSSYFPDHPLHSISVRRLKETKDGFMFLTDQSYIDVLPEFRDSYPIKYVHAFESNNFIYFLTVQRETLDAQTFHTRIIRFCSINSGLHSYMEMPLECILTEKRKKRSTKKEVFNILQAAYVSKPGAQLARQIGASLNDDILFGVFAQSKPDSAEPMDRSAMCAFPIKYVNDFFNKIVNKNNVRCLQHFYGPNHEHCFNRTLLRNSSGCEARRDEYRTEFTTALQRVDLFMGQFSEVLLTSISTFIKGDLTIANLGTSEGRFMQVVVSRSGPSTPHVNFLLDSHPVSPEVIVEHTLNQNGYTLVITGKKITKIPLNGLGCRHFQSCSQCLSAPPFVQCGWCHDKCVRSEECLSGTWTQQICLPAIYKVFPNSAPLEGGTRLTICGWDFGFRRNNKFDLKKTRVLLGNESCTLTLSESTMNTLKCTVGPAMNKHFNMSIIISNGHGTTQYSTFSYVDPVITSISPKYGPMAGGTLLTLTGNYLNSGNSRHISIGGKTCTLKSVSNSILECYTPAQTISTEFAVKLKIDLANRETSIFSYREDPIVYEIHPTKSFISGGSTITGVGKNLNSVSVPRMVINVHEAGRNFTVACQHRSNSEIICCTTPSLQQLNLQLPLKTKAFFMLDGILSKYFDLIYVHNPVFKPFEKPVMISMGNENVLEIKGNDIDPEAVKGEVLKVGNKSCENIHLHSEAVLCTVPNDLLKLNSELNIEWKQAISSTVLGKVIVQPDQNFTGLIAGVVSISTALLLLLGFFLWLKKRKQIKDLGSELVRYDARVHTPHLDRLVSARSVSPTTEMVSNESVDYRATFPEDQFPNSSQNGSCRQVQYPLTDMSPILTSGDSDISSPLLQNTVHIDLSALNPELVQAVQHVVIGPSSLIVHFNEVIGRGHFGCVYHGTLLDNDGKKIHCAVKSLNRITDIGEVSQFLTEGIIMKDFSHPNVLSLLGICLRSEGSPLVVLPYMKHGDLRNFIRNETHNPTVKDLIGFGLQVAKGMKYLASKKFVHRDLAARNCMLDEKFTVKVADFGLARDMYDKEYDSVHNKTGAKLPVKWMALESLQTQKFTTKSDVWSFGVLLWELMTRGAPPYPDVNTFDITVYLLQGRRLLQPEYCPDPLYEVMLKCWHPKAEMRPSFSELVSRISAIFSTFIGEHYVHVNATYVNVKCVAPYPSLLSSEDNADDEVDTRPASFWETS
Hepatocyte growth factor receptor (Homo sapiens), P08581 [F1200I], sequence (P08581 whole entry F1200I): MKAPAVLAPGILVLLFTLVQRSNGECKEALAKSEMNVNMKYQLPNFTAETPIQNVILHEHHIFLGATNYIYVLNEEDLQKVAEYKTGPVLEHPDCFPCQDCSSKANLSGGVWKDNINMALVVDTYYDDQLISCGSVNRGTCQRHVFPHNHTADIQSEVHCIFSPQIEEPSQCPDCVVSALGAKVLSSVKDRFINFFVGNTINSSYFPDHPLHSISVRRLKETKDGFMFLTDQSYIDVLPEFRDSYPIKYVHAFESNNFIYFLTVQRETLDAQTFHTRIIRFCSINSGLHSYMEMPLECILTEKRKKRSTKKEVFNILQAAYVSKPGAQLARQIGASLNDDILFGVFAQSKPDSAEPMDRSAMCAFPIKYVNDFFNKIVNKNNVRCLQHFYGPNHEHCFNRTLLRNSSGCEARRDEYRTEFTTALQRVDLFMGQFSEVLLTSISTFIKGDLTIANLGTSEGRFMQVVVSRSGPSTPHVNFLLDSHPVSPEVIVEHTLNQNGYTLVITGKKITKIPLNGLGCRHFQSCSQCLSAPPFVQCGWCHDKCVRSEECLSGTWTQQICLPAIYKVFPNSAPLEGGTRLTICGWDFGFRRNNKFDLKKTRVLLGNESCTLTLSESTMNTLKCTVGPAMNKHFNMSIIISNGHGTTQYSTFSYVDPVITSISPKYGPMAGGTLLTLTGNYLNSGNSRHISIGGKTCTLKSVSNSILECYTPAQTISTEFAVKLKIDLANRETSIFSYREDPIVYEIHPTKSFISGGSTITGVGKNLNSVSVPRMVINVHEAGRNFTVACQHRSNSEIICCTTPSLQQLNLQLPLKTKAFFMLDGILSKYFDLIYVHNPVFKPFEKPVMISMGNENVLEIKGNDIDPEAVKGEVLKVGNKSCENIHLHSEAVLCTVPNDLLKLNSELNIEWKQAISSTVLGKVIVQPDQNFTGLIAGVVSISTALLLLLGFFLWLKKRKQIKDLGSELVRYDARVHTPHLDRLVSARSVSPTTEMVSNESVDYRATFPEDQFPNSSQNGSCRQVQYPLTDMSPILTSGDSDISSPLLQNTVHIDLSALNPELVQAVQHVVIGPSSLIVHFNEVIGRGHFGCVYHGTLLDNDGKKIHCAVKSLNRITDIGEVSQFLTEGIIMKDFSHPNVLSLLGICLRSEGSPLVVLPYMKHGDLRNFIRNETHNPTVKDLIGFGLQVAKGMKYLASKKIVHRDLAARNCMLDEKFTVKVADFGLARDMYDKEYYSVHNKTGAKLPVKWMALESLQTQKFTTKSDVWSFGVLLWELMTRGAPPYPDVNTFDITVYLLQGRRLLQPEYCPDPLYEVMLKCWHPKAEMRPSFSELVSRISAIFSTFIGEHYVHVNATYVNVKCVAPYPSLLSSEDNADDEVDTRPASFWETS
Alpha-1B adrenergic receptor (Homo sapiens), sequence (P35368 whole entry): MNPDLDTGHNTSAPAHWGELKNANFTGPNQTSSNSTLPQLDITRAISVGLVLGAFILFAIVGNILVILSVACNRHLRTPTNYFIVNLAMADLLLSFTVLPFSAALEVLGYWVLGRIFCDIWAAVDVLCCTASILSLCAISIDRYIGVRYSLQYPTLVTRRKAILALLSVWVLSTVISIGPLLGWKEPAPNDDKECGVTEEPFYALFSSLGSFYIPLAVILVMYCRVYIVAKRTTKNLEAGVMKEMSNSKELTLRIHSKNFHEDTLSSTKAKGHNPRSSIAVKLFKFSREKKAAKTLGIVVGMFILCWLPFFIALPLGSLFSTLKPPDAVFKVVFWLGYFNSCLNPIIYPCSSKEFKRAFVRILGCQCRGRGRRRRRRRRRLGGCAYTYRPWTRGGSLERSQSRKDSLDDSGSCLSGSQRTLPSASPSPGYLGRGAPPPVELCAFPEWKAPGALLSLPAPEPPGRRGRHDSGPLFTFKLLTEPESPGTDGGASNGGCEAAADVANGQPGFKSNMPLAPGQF

O=C1c2ccc(Nc3ccc(F)cc3F)cc2CCc2ccc(OC[C@H](O)CO)cc21 [Skepinone-L]
% Residual activity with Skepinone-L [1]: 96% | % Residual activity with Skepinone-L [2]: 69% | inhibition [3]: 5.83% | % Residual activity with Skepinone-L [4]: 89% | % Residual activity with Skepinone-L [5]: 97% | % Residual activity with Skepinone-L [6]: 104% | % Residual activity with Skepinone-L [7]: 106% | % Residual activity with Skepinone-L [8]: 91% | % Residual activity with Skepinone-L [9]: 94% | % Residual activity with Skepinone-L [10]: 114% | % Residual activity with Skepinone-L [11]: 90% | inhibition [12]: 21.8% | % Residual activity with Skepinone-L [13]: 93% | Ki ([14]; read-out: Ki): 172 nM | Ki ([14]; read-out: pKi (converted)): 166 nM | % Residual activity with Skepinone-L [15]: 94% | % Residual activity with Skepinone-L [16]: 82% | % Residual activity with Skepinone-L [17]: 121% | % Residual activity with Skepinone-L [18]: 90% | % Residual activity with Skepinone-L [19]: 107% | % Residual activity with Skepinone-L [20]: 96% | % Residual activity with Skepinone-L [21]: 102% | % Residual activity with Skepinone-L [22]: 97% | % Residual activity with Skepinone-L [23]: 99% | % Residual activity with Skepinone-L [24]: 99% | % Residual activity with Skepinone-L [25]: 107% | % Residual activity with Skepinone-L [26]: 86% | % Residual activity with Skepinone-L [27]: 111% | inhibition [28]: 5.52% | % Residual activity with Skepinone-L [29]: 102% | % Residual activity with Skepinone-L [30]: 95% | % Residual activity with Skepinone-L [31]: 102% | % Residual activity with Skepinone-L [32]: 79% | inhibition [33]: 22.5% | % Residual activity with Skepinone-L [34]: 95% | % Residual activity with Skepinone-L [35]: 97% | % Residual activity with Skepinone-L [36]: 80% | % Residual activity with Skepinone-L [37]: 125% | % Residual activity with Skepinone-L [38]: 107% | % Residual activity with Skepinone-L [39]: 85% | % Residual activity with Skepinone-L [40]: 85% | % Residual activity with Skepinone-L [41]: 106% | % Residual activity with Skepinone-L [42]: 99% | % Residual activity with Skepinone-L [43]: 121% | % Residual activity with Skepinone-L [44]: 114% | % Residual activity with Skepinone-L [45]: 96% | % Residual activity with Skepinone-L [46]: 77% | % Residual activity with Skepinone-L [47]: 100% | % Residual activity with Skepinone-L [48]: 78% | Ki [49]: > 10000 nM | pKi [49]: < 5
